For data set [1], the system named is SMN2 minigene (full length SMN2 minigene mRNA containing SMN2 exon 7). The experiment in a line: SMN2 minigene mRNA splicing RT-qPCR assay in cultured cells. Format: cell-based, human. To be noted: Homo sapiens, HEK293-H; HEK293H cells stably transfected with SMN2-A minigene; 24 hours; 7-point concentration curve; 1.5-fold relative to vehicle-treated cells; read-out: EC1.5x for production of full length SMN2 mRNA. The method in brief: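 Read-out: full-length (exon 7-included) SMN2 minigene mRNA by multiplex RT-qPCR with GAPDH, efficiency-corrected (1+E)^−Ct, GAPDH-normalized and divided by vehicle. Stably transfected HEK293H cells, 24 h compound exposure, duplicates per concentration. Value is EC1.5x, reported as star ranges.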

Data set [2] relates to Smn protein. Description: Smn protein assay in cultured cells (SMN HTRF). To be noted: 48 hours; for maximum fold (Fold) increase of Smn protein: SMA patient fibroblast cells, 7-point concentration data, fold increase relative to vehicle control (SMN HTRF); for EC1.5x (concentration giving 1.5-fold Smn protein increase): SMA Type 1 patient fibroblast cells (GM03813), 7-point concentration curve, SMN HTRF, concentration producing 1.5 times Smn protein vs DMSO vehicle control, read-out: EC1.5x for Smn protein expression. Format: cell-based, human. The method, boiled down: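 Lysates in RIPA with protease inhibitors are incubated overnight at room temperature with HTRF anti-SMN antibodies. EC1.5x is derived from fold increase in ΔF over vehicle.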

As to `C[C@@H]1CN(c2ccc3cc(-c4cn5ccsc5n4)c(=O)oc3c2)C[C@H](C)N1` [Compound 167, 7-[(3R,5S)-3,5-dimethylpiperazin-1-yl]-3-(imidazo[2,1-b][1,3]thiazol-6-yl)-2H-chromen-2-one], the melting point is 263 to 265 °C. Moreover, in data set [1], the EC (1.5-fold) lay within 0.3 to 1 µM. Moreover, in data set [2], the “maximum fold (Fold) increase of Smn protein” value (shortened to “maximum fold (Fold) increase”) was “** (fold increase between >1.2 and ≤1.35)”.
In turn, `CN(C)[C@H]1[C@@H]2CN(c3ccc4cc(-c5cn6ccsc6n5)c(=O)oc4c3)C[C@@H]21` [Compound 437, 7-[(1R,5S,6s)-6-(dimethylamino)-3-azabicyclo[3.1.0]hex-3-yl]-3-(imidazo[2,1-b][1,3]thiazol-6-yl)-2H-chromen-2-one] showed a melting point of 233 to 235 °C. Moreover, in data set [1], the EC (1.5-fold) was 1 to 3 µM. The “maximum fold (Fold) increase” value in data set [2] was “** (fold increase between >1.2 and ≤1.35)”.
With `CCN(CC)CCCc1ccc2cc(-c3cn4cc(C)nc(C)c4n3)c(=O)oc2c1` [Compound 969, 7-[3-(diethylamino)propyl]-3-(6,8-dimethylimidazo[1,2-a]pyrazin-2-yl)-2H-chromen-2-one], the melting point fell in the range of 165 to 168 °C. In addition, the EC (1.5-fold) in data set [1] was below 0.1 µM. Besides, in data set [2], the EC1.5x (concentration giving 1.5-fold Smn protein increase) is below 300 nM; the “maximum fold (Fold) increase” value is “**** (fold increase between >1.5 and ≤1.65)”.
The molecule `COc1ccc(-c2cc3ccc(N4C[C@@H](C)N[C@@H](C)C4)cc3oc2=O)cc1OC` [Compound 384, 3-(3,4-dimethoxyphenyl)-7-[(3R,5S)-3,5-dimethylpiperazin-1-yl]-2H-chromen-2-one] registered a melting point of 130 to 132 °C. Moreover, in data set [1], the EC (1.5-fold) lay within 3 to 30 µM. The “maximum fold (Fold) increase” value in data set [2] is listed as “* (maximum fold increase of ≤1.2)”.
As to `Cc1cn2cc(-c3cc4ccc(N5C[C@H]6CN(C)C[C@H]6C5)cc4oc3=O)nc2c(C)n1` [Compound 688, 3-(6,8-dimethylimidazo[1,2-a]pyrazin-2-yl)-7-[(3aR,6aS)-5-methylhexahydropyrrolo[3,4-c]pyrrol-2(1H)-yl]-2H-chromen-2-one], the melting point fell in the range of 256 to 264 °C. The EC (1.5-fold) in data set [1] was below 0.1 µM. Moreover, in data set [2], the EC1.5x (concentration giving 1.5-fold Smn protein increase) is below 300 nM and the “maximum fold (Fold) increase” value is “***** (fold increase >1.65)”.
On to `C[C@@H]1CN(c2ccc3cc(-c4cn5ccc(Cl)cc5n4)c(=O)oc3c2)C[C@H](C)N1` [Compound 123, 3-(7-chloroimidazo[1,2-a]pyridin-2-yl)-7-[(3R,5S)-3,5-dimethylpiperazin-1-yl]-2H-chromen-2-one], for which the melting point was in the range of 223 to 231 °C. Further, the EC (1.5-fold) in data set [1] lay in the range of 1 to 3 µM. Moreover, in data set [2], the EC1.5x (concentration giving 1.5-fold Smn protein increase) fell in the range of 300 to 1000 nM; the “maximum fold (Fold) increase” value was “*** (fold increase between >1.35 and ≤1.5)”.
On to `Cc1cn2cc(-c3cc4ccc(CNC(C)C)cc4oc3=O)nc2c(C)n1` [Compound 850, 3-(6,8-dimethylimidazo[1,2-a]pyrazin-2-yl)-7-[(propan-2-ylamino)methyl]-2H-chromen-2-one], for which the melting point lay in the range of 285 to 291 °C. In addition, the EC (1.5-fold) in data set [1] was in the range of 0.3 to 1 µM. Further, the “maximum fold (Fold) increase” value in data set [2] is “** (fold increase between >1.2 and ≤1.35)”.
In turn, `CN1CCC(N(C)c2ccc3cc(-c4cn5cccnc5n4)c(=O)oc3c2)C1` (stereo not shown) [Compound 181, 3-(imidazo[1,2-a]pyrimidin-2-yl)-7-[methyl(1-methylpyrrolidin-3-yl)amino]-2H-chromen-2-one] displayed a melting point of 215 to 217 °C. The EC (1.5-fold) in data set [1] was below 0.1 µM. For the same molecule, the “maximum fold (Fold) increase” value in data set [2] is “** (fold increase between >1.2 and ≤1.35)”.
As for `Cc1cn2cc(-c3cc4ccc(CN5CCNCC5)cc4oc3=O)nc2c(C)n1` [Compound 848, 3-(6,8-dimethylimidazo[1,2-a]pyrazin-2-yl)-7-(piperazin-1-ylmethyl)-2H-chromen-2-one], the melting point lay in the range of 189 to 195 °C. In addition, in data set [1], the EC (1.5-fold) is below 0.1 µM. Also, in data set [2], the EC1.5x (concentration giving 1.5-fold Smn protein increase) fell in the range of 300 to 1000 nM and the “maximum fold (Fold) increase” value is “***** (fold increase >1.65)”.
For `CN1CCN(c2ccc3cc(-c4cn5cc(Cl)ccc5n4)c(=O)oc3c2)CC1` [Compound 94, 3-(6-chloroimidazo[1,2-a]pyridin-2-yl)-7-(4-methylpiperazin-1-yl)-2H-chromen-2-one], the melting point lay within 290 to 292 °C. Besides, the EC (1.5-fold) in data set [1] was 3 to 30 µM. The “maximum fold (Fold) increase” value in data set [2] is “*** (fold increase between >1.35 and ≤1.5)”.
On to `COc1c(F)cc(F)cc1-c1cc2ccc(N3CCN[C@@H](C)C3)cc2oc1=O` [Compound 539, 3-(3,5-difluoro-2-methoxyphenyl)-7-[(3S)-3-methylpiperazin-1-yl]-2H-chromen-2-one], for which the melting point was 156 to 158 °C. In data set [1], the EC (1.5-fold) was 3 to 30 µM. In data set [2], the “maximum fold (Fold) increase” value is given as “* (maximum fold increase of ≤1.2)”.
The molecule `Cc1cc(F)c2nc(-c3cc4ccc(N5CCN6CCC[C@@H]6C5)cc4oc3=O)cn2c1` [Compound 611, 3-(8-fluoro-6-methylimidazo[1,2-a]pyridin-2-yl)-7-[(8aR)-hexahydropyrrolo[1,2-a]pyrazin-2(1H)-yl]-2H-chromen-2-one] yielded a melting point of 296 to 306 °C. In data set [1], the EC (1.5-fold) fell in the range of 0.3 to 1 µM. In addition, in data set [2], the EC1.5x (concentration giving 1.5-fold Smn protein increase) is 1000 to 3000 nM; the “maximum fold (Fold) increase” value is “**** (fold increase between >1.5 and ≤1.65)”.
On to `Cc1cn2cc(-c3cc4ccc(OC[C@H]5CCCN5)cc4oc3=O)nc2c(C)n1` [Cpd 948, 3-(6,8-dimethylimidazo[1,2-a]pyrazin-2-yl)-7-[(2R)-pyrrolidin-2-ylmethoxy]-2H-chromen-2-one], for which the melting point was 172 to 174 °C. The EC (1.5-fold) in data set [1] is below 0.1 µM. In data set [2], the “maximum fold (Fold) increase” value was “*** (fold increase between >1.35 and ≤1.5)”.
In turn, `COc1cccc(-c2cc3ccc(N4CCN[C@H](C)C4)cc3oc2=O)n1` [Compound 361, 3-(6-methoxypyridin-2-yl)-7-[(3R)-3-methylpiperazin-1-yl]-2H-chromen-2-one] returned a melting point of 150 to 152 °C. Moreover, the EC (1.5-fold) in data set [1] was in the range of 1 to 3 µM. The “maximum fold (Fold) increase” value in data set [2] was “** (fold increase between >1.2 and ≤1.35)”.
`CCCN1CCN(c2ccc3cc(-c4cc5cc(C)ccn5n4)c(=O)oc3c2)CC1` [Compound 308, 3-(5-methylpyrazolo[1,5-a]pyridin-2-yl)-7-(4-propylpiperazin-1-yl)-2H-chromen-2-one] gave a melting point of 228 to 230 °C. Also, the EC (1.5-fold) in data set [1] fell in the range of 3 to 30 µM. Further, the “maximum fold (Fold) increase” value in data set [2] was “** (fold increase between >1.2 and ≤1.35)”.
The molecule `Cc1cn2cc(-c3cc4ccc(N5CCN(CCCF)[C@@H](C)C5)cc4oc3=O)nc2c(C)n1` [Compound 900, 3-(6,8-dimethylimidazo[1,2-a]pyrazin-2-yl)-7-[(3S)-4-(3-fluoropropyl)-3-methylpiperazin-1-yl]-2H-chromen-2-one] gave a melting point of 215 to 217 °C. The EC (1.5-fold) in data set [1] was below 0.1 µM. In addition, in data set [2], the EC1.5x (concentration giving 1.5-fold Smn protein increase) is below 300 nM and the “maximum fold (Fold) increase” value was “***** (fold increase >1.65)”.
In turn, `Cc1cn2cc(-c3cc4ccc(N5CCCN(C)CC5)cc4oc3=O)nc2c(C)n1` [Compound 519, 3-(6,8-dimethylimidazo[1,2-a]pyrazin-2-yl)-7-(4-methyl-1,4-diazepan-1-yl)-2H-chromen-2-one] showed a melting point of 253 to 255 °C. Besides, the EC (1.5-fold) in data set [1] was below 0.1 µM. For the same molecule, in data set [2], the EC1.5x (concentration giving 1.5-fold Smn protein increase) is below 300 nM and the “maximum fold (Fold) increase” value is given as “***** (fold increase >1.65)”.
In the case of `Cc1cn2cc(-c3cc4ccc(N5CCN6CCCCC6C5)cc4oc3=O)cc2cn1` (stereo not shown) [Compound 646, 3-(3-methylpyrrolo[1,2-a]pyrazin-7-yl)-7-(octahydro-2H-pyrido[1,2-a]pyrazin-2-yl)-2H-chromen-2-one], the melting point was in the range of 218 to 221 °C. In addition, the EC (1.5-fold) in data set [1] is below 0.1 µM. Further, in data set [2], the EC1.5x (concentration giving 1.5-fold Smn protein increase) was below 300 nM; the “maximum fold (Fold) increase” value was “**** (fold increase between >1.5 and ≤1.65)”.
`O=c1oc2cc(N3CCNCC3)ccc2cc1-c1cccc(N2CCCC2)n1` [Cpd 386, 7-(piperazin-1-yl)-3-[6-(pyrrolidin-1-yl)pyridin-2-yl]-2H-chromen-2-one] returned a melting point of 190 to 192 °C. For the same molecule, the EC (1.5-fold) in data set [1] was in the range of 3 to 30 µM. In addition, the “maximum fold (Fold) increase” value in data set [2] is recorded as “* (maximum fold increase of ≤1.2)”.
`Cc1nccn2cc(-c3cc4ccc(N5CCCNCC5)cc4oc3=O)nc12` [Compound 572, 7-(1,4-diazepan-1-yl)-3-(8-methylimidazo[1,2-a]pyrazin-2-yl)-2H-chromen-2-one]: the melting point was 212 to 216 °C. Also, the EC (1.5-fold) in data set [1] was in the range of 0.1 to 0.3 µM. Moreover, in data set [2], the EC1.5x (concentration giving 1.5-fold Smn protein increase) lay within 300 to 1000 nM; the “maximum fold (Fold) increase” value was “**** (fold increase between >1.5 and ≤1.65)”.
In the case of `Cc1cn2cc(-c3cc4ccc(N5CCN(CCO)CC5)cc4oc3=O)nc2c(C)n1` [Compound 654, 3-(6,8-dimethylimidazo[1,2-a]pyrazin-2-yl)-7-[4-(2-hydroxyethyl)piperazin-1-yl]-2H-chromen-2-one], the melting point lay in the range of 231 to 233 °C. Moreover, in data set [1], the EC (1.5-fold) is below 0.1 µM. In data set [2], the EC1.5x (concentration giving 1.5-fold Smn protein increase) is below 300 nM; the “maximum fold (Fold) increase” value was “**** (fold increase between >1.5 and ≤1.65)”.

Values taken from USRE47689E1, “Compounds for treating spinal muscular atrophy” (PTC Therapeutics, Inc., priority 2011, dated 2019).
